From patent US20240228543A1, “CYCLIC PEPTIDE INHIBITORS OF USP22” (THE JOHNS HOPKINS UNIVERSITY, priority 2021, published 2024) come the findings set out here.

Molecules are shown by their SMILES. pIC50, pKi: −log10 of the molar value. “And” between values parts separate entries of the source, which are not always exact repeats. Equal entries are not always repeated. Positions of bridges follow the written chain, without caps; N, C: chain ends. Non-standard residues stand in square brackets, D forms with d. Residues, ends and D or L forms follow the SMILES beside them.

In experiment [1] the target is T1, human DUB module (hDUBm; USP22, ATXN7, ATXN7L3, ENY2) (Homo sapiens, UniProt Q9UPT9).
T1 construct: 6xHis (TEV-cleavable) (N, cleaved yes); made in house; host or cells: High Five insect cells (baculovirus, Bac2Bac; virus amplified in Sf9)
T1 sequence (Q9UPT9 whole entry, one chain of several): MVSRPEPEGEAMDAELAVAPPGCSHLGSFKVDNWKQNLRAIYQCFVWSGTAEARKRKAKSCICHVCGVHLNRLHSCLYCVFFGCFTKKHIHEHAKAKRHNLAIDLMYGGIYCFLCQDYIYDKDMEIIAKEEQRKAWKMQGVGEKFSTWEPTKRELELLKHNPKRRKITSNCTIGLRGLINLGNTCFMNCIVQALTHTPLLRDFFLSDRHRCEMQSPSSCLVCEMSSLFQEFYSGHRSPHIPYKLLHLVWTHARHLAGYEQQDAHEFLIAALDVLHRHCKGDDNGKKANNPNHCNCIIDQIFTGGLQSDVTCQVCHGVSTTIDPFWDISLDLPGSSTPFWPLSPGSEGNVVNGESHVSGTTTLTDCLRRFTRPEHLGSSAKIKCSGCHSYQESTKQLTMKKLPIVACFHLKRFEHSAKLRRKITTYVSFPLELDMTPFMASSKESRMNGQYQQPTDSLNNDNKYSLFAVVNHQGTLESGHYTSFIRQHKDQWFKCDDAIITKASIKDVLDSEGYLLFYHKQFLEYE
T1 sequence (O15265 3-151 partner limits assumed, one chain of several): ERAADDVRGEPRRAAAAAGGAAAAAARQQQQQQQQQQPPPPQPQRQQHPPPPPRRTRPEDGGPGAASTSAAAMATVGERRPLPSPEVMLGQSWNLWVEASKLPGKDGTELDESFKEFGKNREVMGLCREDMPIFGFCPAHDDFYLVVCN
Description: Ub-AMC deubiquitination assay, human DUB module. It counts as biochemical. The note with it: Ki (apparent, Morrison approximation), Ub-AMC cleavage, 200 nM DUB, 1 μM Ub-AMC. The protocol: FIG. 2A is a graph of initial rates of Ub-AMC cleavage by hDUB module as a function of substrate concentration. […] FIGS. 2B-2G are graphs of each cyclic peptide, as indicated, tested for its ability to inhibit Ub-AMC cleavage in the presence of increasing amounts of the peptide into a reaction with a fixed amount of DUB (200 nM) and Ub-AMC (1 μM). Ki values were determined for each curve using the Morrison Ki approximation.
Ub-AMC deubiquitination assay A working stock mixture of either yDUBm or hDUBm was prepared in the presence of either DMSO (mock) or a dilution series of the cyclic peptide. […] Each enzyme:peptide mixture was incubated for 30 min at 30° C. in the case of yDUBm, and 37° C. in the case of hDUBm, with each enzyme complex at 1.033× the desired concentration (207 nM). The enzyme:peptide mixture ([…]) was added to 1 μL of 30 μM U b-AMC (7-amino-4-methylcoumarin) (Boston Biochem), for a final concentration of 200 nM DUBm, the indicated cyclic peptide concentration, and 1 μM Ub-AMC. DUB activity was measured by observing the increase in AMC fluorescence in a plate reader, and the initial rate of fluorescence increase was calculated and plotted as a function of inhibitor concentration (FIGS. 2B-2I). The Ki values were determined using the Morrison approximation of enzyme inhibition equilibria within Prism (Graphpad).
The cyclic peptides that constituted potential inhibitors were chemically synthesized by solid phase peptide synthesis and tested for their effectiveness and specificity as inhibitors in vitro. Since the enzyme kinetics of the human DUB module had not previously been characterized, hDUBm activity was assayed using the fluorogenic substrate, ubiquitin-amino methyl coumarin (Ub-AMC) (FIG. 2A).

The target in the next experiment is T2, USP51/ATXN7L3/ENY2 (Homo sapiens, UniProt Q70EK9).
T2 construct: made in house
T2 sequence (Q70EK9 1-711): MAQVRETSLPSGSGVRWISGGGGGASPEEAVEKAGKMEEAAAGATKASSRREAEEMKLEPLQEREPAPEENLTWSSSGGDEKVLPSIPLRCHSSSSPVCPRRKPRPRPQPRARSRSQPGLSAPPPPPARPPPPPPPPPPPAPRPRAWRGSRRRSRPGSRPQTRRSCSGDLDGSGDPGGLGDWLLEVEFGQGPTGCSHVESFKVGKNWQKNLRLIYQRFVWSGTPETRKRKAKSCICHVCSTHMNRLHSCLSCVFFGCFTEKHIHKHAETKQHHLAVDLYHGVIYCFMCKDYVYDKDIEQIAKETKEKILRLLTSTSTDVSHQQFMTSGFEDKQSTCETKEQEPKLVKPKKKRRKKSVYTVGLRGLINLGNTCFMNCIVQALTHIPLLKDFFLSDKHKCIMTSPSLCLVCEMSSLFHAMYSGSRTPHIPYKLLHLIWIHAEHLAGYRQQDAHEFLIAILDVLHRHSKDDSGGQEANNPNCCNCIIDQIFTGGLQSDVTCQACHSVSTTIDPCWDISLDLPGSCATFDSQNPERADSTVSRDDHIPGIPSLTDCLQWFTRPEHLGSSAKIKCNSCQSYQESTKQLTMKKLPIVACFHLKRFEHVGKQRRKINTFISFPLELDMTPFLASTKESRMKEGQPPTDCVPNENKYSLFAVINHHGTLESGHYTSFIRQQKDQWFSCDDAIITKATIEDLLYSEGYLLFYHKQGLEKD
T2 sequence (Q14CW9 1-347 partner): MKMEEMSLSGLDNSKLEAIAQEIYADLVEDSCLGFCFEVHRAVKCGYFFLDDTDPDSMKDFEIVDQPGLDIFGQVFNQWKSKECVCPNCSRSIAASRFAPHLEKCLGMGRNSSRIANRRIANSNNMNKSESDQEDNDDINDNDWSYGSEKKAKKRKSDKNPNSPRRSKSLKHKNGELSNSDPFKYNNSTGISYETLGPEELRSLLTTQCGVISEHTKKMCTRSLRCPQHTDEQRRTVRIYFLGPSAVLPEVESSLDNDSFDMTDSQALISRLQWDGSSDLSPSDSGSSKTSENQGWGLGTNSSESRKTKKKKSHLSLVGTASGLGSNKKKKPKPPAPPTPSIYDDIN
T2 sequence (Q9NPA8 1-101 partner): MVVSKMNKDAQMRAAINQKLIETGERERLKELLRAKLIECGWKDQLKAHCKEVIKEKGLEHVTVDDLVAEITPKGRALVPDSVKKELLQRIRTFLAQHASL
Description: Inhibition of H2B DUB complexes, Ub-AMC cleavage: USP51 complex. The format is biochemical. The note with it: 1000 nM complex, 5 μM Ub-AMC. The protocol: Cleavage rates of 5 μM Ub-AMC were assayed for 75 nM USP22/ATXN7L3/ENY2/ATXN7 (hDUBm), 100 nM USP27x/ATXN7L3/ENY2, or 1000 nM USP51/ATXN7L3/ENY2. Rates were normalized to the uninhibited reaction in each case to determine the fraction of apparent activity.
DUB specificity assays Ubiquitin-rhodamine(110)-glycine cleavage rates were measured for all DUBs available in the DUBprofiler™ panel with two independent replicates (44 in total; Ubiquigent). […] USP22 was not included in the panel, and is not represented in FIG. 12A. […] Initial cleavage rates of each complex were measured on a fixed concentration of 5 μM Ub-AMC.
Heterotrimeric complexes containing USP27x and USP51 were purified, respectively, in complex with ENY2 and ATXN7L3. The activity of these complexes on Ub-AMC was compared to that of the human DUBm, which contains USP22, ENY2, ATXN7L3, and a fourth subunit, ATXN7, that anchors the DUBm to the rest of the SAGA complex.

Usually pKi stands for the Ki on a negative log10 scale, so that one unit is a factor of ten. One may read the pIC50 as −log10 of the IC50, conventionally taken in molar units. Regarding `CC[C@H](C)[C@@H]1NC(=O)[C@H](C)NC(=O)[C@@H](Cc2ccc(O)cc2)NC(=O)CSC[C@@H](C(N)=O)NC(=O)[C@H](CC(C)C)NC(=O)[C@H](CC(C)C)NC(=O)[C@H]([C@@H](C)O)NC(=O)[C@H]([C@@H](C)O)NC(=O)[C@H](CCCCN)NC(=O)CNC(=O)[C@H](CCCNC(=N)N)NC(=O)[C@H](Cc2ccc(O)cc2)NC(=O)[C@H](CO)NC1=O` [hD1] ({CH2CO}-[dY]AISYRGKTTLLC-NH2; thioether N-13), the pKi in experiment [1] is > 7.00 and 7.69. Further, the pIC50 at USP51/ATXN7L3/ENY2 is under 3.60.
